Measurements: patent US20040266749A1, “Methods for cystic fibrosis disease assessment and methods for treating anaerobic P. aeruginosa biofilms in cystic fibrosis disease” (priority 2002, published 2004)

Tested on: P. aeruginosa rhlR mutant anaerobic biofilm
Assay: Anaerobic biofilm protection of rhlR mutant bacteria by carboxy-PTIO (confocal LIVE/DEAD viability)
Type: cell-based, Pseudomonas aeruginosa
Settings: 5 mM carboxy-PTIO
Experimental: (b) Confocal examination of biofilms. For biofilm architecture examination, circular coverslips are glued to the bottom of 35×10 mm polystyrene tissue culture dishes with small holes in the base (Falcon). The plates are sterilized overnight by UV irradiation. Three ml of aerobic L-broth, aerobic LBN or anaerobic LBN is inoculated with ˜10^7 CFU of overnight L-broth grown culture. After 24 hr at 37° C., biofilms are washed with saline and stained with 0.5 ml of a LIVE/DEAD BacLight bacterial viability stain (Molecular Probes, Inc., Eugene, Oreg.). Images are acquired on a Zeiss LSM 510 laser scanning confocal unit attached to an Axiovert microscope using a 63×1.4 NA oil immersion objective. For two color images, samples are scanned sequentially at 488 nm and 546 nm. Syto 9 (green fluorescence) is detected through a 505-530 nm bandpass filter and propidium iodine (red fluorescence) is detected through a 560 nm longpass filter and presented in two channels of a 512×512 pixel, 8-bit image.
(a) Anaerobic biofilm protection by 2-(4-Carboxyphenyl)-4,4,5,5-tetramethylimidazoline-1-oxyl-3-oxide (carboxy-PTIO). Biofilms of rhlR mutant bacteria are grown anaerobically in the presence vs. absence of 5 mM carboxy-PTIO (Molecular Probes, Eugene, Oreg.), an NO scavenger. […]

CC1(C)N([O])C(c2ccc(C(=O)O)cc2)=[N+]([O-])C1(C)C [carboxy-PTIO, 2-(4-Carboxyphenyl)-4,4,5,5-tetramethylimidazoline-1-oxyl-3-oxide]
Biofilm zone in which protection is primarily observed (top of the biofilm) (anaerobic rhlR mutant biofilm, sagittal sectioning, FIG. 3B line 2 vs. 1): 10-15 μm | Protection of anaerobic rhlR mutant biofilm bacteria from cell death (viability) (rhlR mutant grown anaerobically as biofilm, FIG. 3A panels 2 vs. 1): protected the rhlR mutant
